From ChEMBL document CHEMBL1649495, “Sitafloxacin activity against Helicobacter pylori isolates, including those with gyrA mutations” (2009)
Converted amounts (≈) assume the structure as drawn.

How the values were obtained:
Format in all cases: functional
Helicobacter pylori [1] = test: Antibacterial activity against Helicobacter pylori clinical isolates harboring gyrA Asn87 mutant gene by agar dilution method
Helicobacter pylori [2] = test: Antibacterial activity against Helicobacter pylori clinical isolates harboring gyrA Asp91 mutant gene by agar dilution method
Helicobacter pylori [3] = test: Antibacterial activity against Helicobacter pylori clinical isolates harboring gyrA gene by agar dilution method
Helicobacter pylori [4] = test: Antibacterial activity against Helicobacter pylori clinical isolates harboring mutation in gyrA gene by agar dilution method

SMILES | MIC50 (Helicobacter pylori [1]) | MIC90 (Helicobacter pylori [1]) | MIC50 (Helicobacter pylori [2]) | MIC90 (Helicobacter pylori [2]) | MIC50 (Helicobacter pylori [3]) | MIC90 (Helicobacter pylori [3]) | MIC (Helicobacter pylori [4])
C[C@H]1NCc2cc(-c3ccc4c(=O)c(C(=O)O)cn(C5CC5)c4c3OC(F)F)ccc21 [GARENOXACIN] | 0.5 µg/mL (≈ 1.17 µM) | 1 µg/mL (≈ 2.35 µM) | 0.5 µg/mL (≈ 1.17 µM) | 1 µg/mL (≈ 2.35 µM) | 0.03 µg/mL (≈ 0.0704 µM) | 0.06 µg/mL (≈ 0.141 µM) | ≤ 0.015 µg/mL
C[C@H]1COc2c(N3CCN(C)CC3)c(F)cc3c(=O)c(C(=O)O)cn1c23.C[C@H]1COc2c(N3CCN(C)CC3)c(F)cc3c(=O)c(C(=O)O)cn1c23.O [LEVOFLOXACIN] | 8 µg/mL | 16 µg/mL | 4 µg/mL | 8 µg/mL | 0.25 µg/mL | 0.25 µg/mL | 0.12 µg/mL
N[C@@H]1CN(c2c(F)cc3c(=O)c(C(=O)O)cn([C@@H]4C[C@@H]4F)c3c2Cl)CC12CC2 [SITAFLOXACIN ANHYDROUS] | 0.25 µg/mL (≈ 0.61 µM) | 0.5 µg/mL (≈ 1.22 µM) | 0.12 µg/mL (≈ 0.293 µM) | 0.25 µg/mL (≈ 0.61 µM) | 0.03 µg/mL (≈ 0.0732 µM) | 0.03 µg/mL (≈ 0.0732 µM) | ≤ 0.015 µg/mL
